Assay results reported in patent publication US5635519A, “Benzothiazole compounds which are substituted by pyridymethyl” (Eisai Co., Ltd., priority 1991, dated 1997).
“Also recorded” adds a separate entry of the source. Counter-ions that a name gives are not always drawn.

Tests used:
[1] = system: LTB4; experiment: Suppressing production of leukotriene B4 (LTB4) from rat peritoneal exudation cells; format: cell-based; settings: A23187 2 μg/ml, read-out: Production suppressing function IC50, LTB4
Method: (§1) After 20 to 24 hours, peritoneal exudation cells were collected from the rats, washed and suspended in the Hank's buffer salt solution (HESS) at a concentration of 5×10^6 /ml. Then 100 μl/well of the obtained cell suspension was […] into a 96-well culture plate (Costar^R) containing 10 μl/well of a sample drug diluted to a given concentration. The plate was incubated at 37° C. for 5 minutes and A23187 (CALBIOCHEM®) was added thereto so as to give a final concentration of 2 μg/ml. After incubating at 37° C. for additional 10 minutes, the plate was transferred on ice and a B[…] solution was added thereto so as to give a final concentration of 100 μM. This plate was centrifuged at 15,000 rpm for 10 minutes and the supernatant was collected. Then the LTB4, TxB2 and PGE2 present in the supernatant were determined by enzyme immunoassay with the use of an EIA Kit manufactured by CAYMAN.

[2] = system: TxB2; experiment: Suppressing production of thromboxane B2 (TxB2) from rat peritoneal exudation cells; format: cell-based; settings: A23187 2 μg/ml, read-out: Production suppressing function IC50, TxB2
Method: as §1

[3] = system: PGE2; experiment: Effect on production of prostaglandin E2 (PGE2) from rat peritoneal exudation cells; format: cell-based; settings: A23187 2 μg/ml
Method: as §1

[4] = system: LTB4; experiment: Suppressing production and liberation of LTB4 from TNB-colitis rat colon; format: in vivo; settings: 100 mg/kg oral, 6 hours, A23187 5 μg/ml
Method: (§2) Functions of suppressing production and liberation of LTB4 and TxB2 from TNB (trinitrobenzenesulfonic acid)-colitis rat colon Rat TNB-colitis was induced in accordance with the method reported by Morris et al. [Gastroenterology, 96, 795-803 (1989)]. Namely, each of male F344 rats aged 9 weeks was fasted for 2 days and then etherized. A sound (1.2×80 mm, manufactured by Fuehigami Kikai-ten) was inserted into the rectum of the animal to inject 0.25 ml of a 120 mg/ml solution of TNB (a product of Tokyo Kasei K. K.) in 50% ethanol into the colon cavity. The effects of each compound on the production and liberation of LTB4 and TxB2 from the colon of the TNB-colitis rat were evaluated by using the rat 7 days after the injection of TNB. Namely, each compound (5% suspension in methylcellulose) was orally administered to the rat in a dose of 0.5 ml/100 g body weight. After 6 hours, the animal was deeply deeply etherlzed and subjected to autopsy. Thus the colon tissue was extirpated. The colon was incubated in Tyrode's solution (CALBIOCHEM containing 5 μg/ml of A23187-calcium ionophore) at 37° C. for 20 minutes in accordance with the method of […] et al. [Biochim. Biophys. Acta, 878, 184-193 (1986)]. Then LTB4, TxB2 and PGE2 thus produced and liberated into the medium were determined by radioimmunoassay (RXA).

[5] = system: TxB2; experiment: Suppressing production and liberation of TxB2 from TNB-colitis rat colon; format: in vivo; settings: 100 mg/kg oral, 6 hours, A23187 5 μg/ml
Method: as §2

[6] = system: PGE2; experiment: Suppressing production and liberation of PGE2 from TNB-colitis rat colon; format: in vivo; settings: 100 mg/kg oral, 6 hours, A23187 5 μg/ml
Method: as §2

[7] = system: TNB-colitis; experiment: Therapeutic effects on TNB-colitis (MPO in colon); format: in vivo, rat; settings: once a day for 11 days
Method: Therapeutic effects on TNB-colitis
Rat TNB-colitis was induced in accordance with the method reported by Morris et al. [Gastroenterology, 96, 795-808 (1989)]. Namely, each of male F344 rats aged 9 weeks was fasted for 2 days and then etherized. A sound (1.2×80 mm, manufactured by Fuchigami Kikai-ten) was inserted into the rectum of the animal to inject 0.25 ml of a 120 mg/ml solution of TNB (a product of Tokyo Kasei K. K.) in 50% ethanol into the colon cavity. 3 days after the injection of TNB, each compound (5% suspension in methylcellulose) was orally administered once a day for 11 days. 14 days after the injection of TNB, the animal was subjected to autopsy and the colon was extirpated. The extent of damage to the colon was evaluated by determining MPO (myeloperoxidase) present therein.
The therapeutic ratio was calculated according to the following equation:
therapeutic ratio=(5% methylcellulose group-ethanol group)-(invention
compound group-ethanol group).

[8] = system: rats; experiment: Toxicity test, 28 days repeated administration; format: in vivo, rat; settings: 200 mg/kg once a day for 28 days

Row | SMILES | IC50 [1] | IC50 [2] | Production suppressing function, PGE2 (in words) [3] | Suppression ratio (%), LTB4 [4] | Suppression ratio (%), TxB2 [5] | Suppression ratio (%), PGE2 [6] | Therapeutic ratio (%) ([7]; 100 mg/kg/day oral) | Production suppressing function, PGE2 (in words) ([3]; dihydrochloride) | Therapeutic ratio (%) ([7]; 10 mg/kg/day oral) | abnormality caused by the administration [8]
1 | CCNc1nc2c(C)c(Cc3cccnc3)c(O)c(C)c2s1 [Example 14, 2-Ethylamino-6-hydroxy-4,7-dimethyl-5-(3-pyridylmethyl)benzothiazole] | 230 nM | 650 nM | enhanced at 0.1-1 μM; also recorded: suppressed at 100 μM | 83% | 67% | 8% | 32% |  |  | 
2 | CCNc1nc2c(Cc3cccnc3)c(C)c(O)c(C)c2s1.Cl.Cl [Example 11, 2-Ethylamino-6-hydroxy-5,7-dimethyl-4-(3-pyridylmethyl)benzothiazole dihydrochloride] | < 100 nM | 100 nM |  | 94% | 85% | 0% | 41% | enhanced at 0.1-10 μM; also recorded: suppressed at 100 μM |  | 
3 | COc1cc2nc(NCc3cccnc3)sc2c(OC)c1O [Example 1, 6-Hydroxy-5,7-dimethoxy-2-(3-pyridylmethyl)aminobenzothiazole] | 90 nM | 5460 nM | enhanced at 1-10 μM; also recorded: suppressed at 100 μM | 19% | 55% | 10% |  |  |  | 
4 | Cc1c(O)c(C)c2sc(NCc3cccnc3)nc2c1C [Example 4, 6-Hydroxy-4,5,7-trimethyl-2-(3-pyridylmethyl)aminobenzothiazole] | < 100 nM | 1950 nM | enhanced at 0.1-1 μM; also recorded: suppressed at 10 μM or above | 93% | 72% | 30% | 31% |  |  | 
5 | Cc1c(O)c(Cc2cccnc2)c2sc(N)nc2c1C.Cl.Cl [Example 15, 2-Amino-6-hydroxy-4,5-dimethyl-7-(3-pyridylmethyl)benzothiazole dihydrochloride] | 250 nM | 5310 nM | enhanced at 0.1-100 μM |  |  |  |  |  |  | 
6 | CCc1c(O)c(OC)c(Cc2cccnc2)c2nc(NC)sc12.Cl.Cl [Example 23, 7-Ethyl-6-hydroxy-5-methoxy-2-methylamino-4-(3-pyridylmethyl)benzothiazole dihydrochloride] | < 100 nM | 330 nM |  |  |  |  |  | enhanced at 0.1-10 μM; also recorded: suppressed at 100 μM |  | 
7 | C[C@]12C=CC(=O)C=C1CC[C@@H]1[C@@H]2[C@@H](O)C[C@@]2(C)[C@H]1CC[C@]2(O)C(=O)CO [prednisolone, reference compound] |  |  |  |  |  |  |  |  | 60% | 
8 | COc1c(O)c(C)c2sc(N)nc2c1Cc1cccnc1 [Example 20, 2-Amino-6-hydroxy-5-methoxy-7-methyl-4-(3-pyridylmethyl)benzothiazole dihydrochlorlde] | 170 nM | 110 nM | enhanced at 0.1-100 μM |  |  |  |  |  |  | 
9 | CCc1c(O)c(OC)c(Cc2cccnc2)c2nc(N)sc12 [Example 22, 2-Amino-7-ethyl-6-hydroxy-5-methoxy-4-(3-pyridylmethyl)benzothiazole dihydrochloride] | 150 nM | 180 nM |  |  |  |  |  |  |  | 
10 | CNc1nc2c(Cc3cccnc3)c(OC)c(O)c(C)c2s1 [Example 21, 6-Hydroxy-5-methoxy-7-methyl-2-methylamino-4-(3-pyridylmethyl)benzothiazoledihydrochloride] | 170 nM | 1280 nM |  |  |  |  |  |  |  | 
11 | CNc1nc2c(C(OC(C)=O)c3cccnc3)c(C)c(O)c(C)c2s1 (centres unmarked) [Example 9, {4-(6-Hydroxy-5,7-dimethyl-2-methylamino)benzothiazoyl}-(3-pyridyl)methyl acetate] | 380 nM | 730 nM | enhanced at 0.1-100 μM |  |  |  |  |  |  | 
12 | Cc1cc(O)c(C)c2sc(NCc3cccnc3)nc12 [Example 5, 6-Hydroxy-4,7-dimethyl-2-(3-pyridylmethyl)aminobenzothiazole] | < 100 nM | 4390 nM | enhanced at 0.1-10 μM; also recorded: suppressed at 100 μM | 94% | 36% | 30% | 53% |  |  | 
13 | Cc1c(O)c(C)c2sc(N)nc2c1Cc1cccnc1 [Example 18, 2-Amino-6-hydroxy-5,7-dimethyl-4-(3-pyridylmethyl)benzothiazole dihydrochloride] | 190 nM | 2 nM |  |  |  |  |  |  |  | 
14 | CNc1nc2c(Cc3cccnc3)c(C)c(O)c(C)c2s1 [Example 10, 6-Hydroxy-5,7-dimethyl-2-methylamino-4-(3-pyridylmethyl)benzothiazole] |  |  | enhanced at 0.1-10 μM |  |  |  |  |  |  | no abnormality caused by the administration of the drug was observed
15 | CCCNc1nc2c(Cc3cccnc3)c(C)c(O)c(C)c2s1.Cl.Cl [Example 12, 6-Hydroxy-5,7-dimethyl-2-propylamino-4-(3-pyridylmethyl)benzothiazole dihydrochloride] | < 100 nM | 90 nM |  |  |  |  |  | enhanced at 0.1-10 μM; also recorded: suppressed at 100 μM |  | 
16 | CCNc1nc2c(C)c(C)c(O)c(Cc3cccnc3)c2s1 [Example 17, 2-Ethylamino-6-hydroxy-4,5-dimethyl-7-(3-Pyridylmethyl)benzothiazole] | < 100 nM | 2000 nM | enhanced at 1 μM; also recorded: suppressed at 100 μM | 89% | 53% | 41% | 40% |  |  | 
